Experiment: cn = amount concentration of the nth substance listed, in mol/dm3
Conditions: 101.3 kPa, Liquid

CCCCCCCCCCCC(=O)O [dodecanoic acid] + CCC(C)O
Conditions | mass density, 293.15 K [kg/m3] | mass density, 303.15 K [kg/m3] | mass density, 313.15 K [kg/m3] | mass density, 333.15 K [kg/m3] | viscosity, 293.15 K [mPa·s] | viscosity, 303.15 K [mPa·s] | viscosity, 313.15 K [mPa·s] | viscosity, 333.15 K [mPa·s]
c1 = 0.0103 | 806.38 | 798.71 | 791.02 | 778.39 | 3.58 | 2.547 | 1.81 | 1.05
c1 = 0.05 | 807.27 | 800.23 | 793.39 | 779.62 | 3.665 | 2.548 | 1.818 | 1.04
c1 = 0.1003 | 807.29 | 800.56 | 794.11 | 780.76 | 3.7 | 2.573 | 1.851 | 1.07
c1 = 0.15 | 808.85 | 801.14 | 794.51 | 782 | 3.688 | 2.585 | 1.865 | 1.08
c1 = 0.2001 | 808.76 | 801.85 | 794.64 | 782.9 | 3.744 | 2.624 | 1.877 | 1.1
c1 = 0.35 | 812.86 | 805.19 | 797.47 | 785.3 | 3.841 | 2.704 | 1.951 | 1.15

CCCCCCCCCCCCCCCC(=O)O [hexadecanoic acid] + CCC(C)O
Conditions | mass density, 293.15 K [kg/m3] | mass density, 303.15 K [kg/m3] | mass density, 313.15 K [kg/m3] | mass density, 333.15 K [kg/m3] | viscosity, 293.15 K [mPa·s] | viscosity, 303.15 K [mPa·s] | viscosity, 313.15 K [mPa·s] | viscosity, 333.15 K [mPa·s]
c1 = 0.01 | 807.66 | 799.68 | 792.63 | – | 3.53 | 2.464 | 1.751 | –
c1 = 0.05 | 807.67 | 800.09 | 792.74 | 782.3 | 3.616 | 2.499 | 1.789 | 1.09
c1 = 0.1 | 809.21 | 801.34 | 794.66 | 782.9 | 3.613 | 2.512 | 1.808 | 1.08
c1 = 0.1501 | 810.16 | 802.89 | 795.01 | 783.19 | 3.7 | 2.585 | 1.85 | 1.13
c1 = 0.2001 | 810.6 | 802.96 | 795.11 | 783.51 | 3.828 | 2.665 | 1.921 | 1.14
c1 = 0.3501 | 813.04 | 806.24 | 799.34 | 787.5 | 4.056 | 2.834 | 2.045 | 1.27
